Measured values as given in patent US20250339396A1 (COSMAS THERAPEUTICS DEVELOPMENT INC., priority 2021, published 2025).

Key:
[1] = test system: mice (C57/BL); test: Elevated Plus Maze Test (EPMT); format: in vivo, mouse; set-up: key to closed arm time, difference between medians: Actual / closed arm time, difference between medians: Hodges-Lehmann: time in closed arms, in seconds (s); total distance, difference between medians: Actual / total distance, difference between medians: Hodges-Lehmann: unit not given here; settings: 150 mg/kg oral gavage
Protocol: Prodrug D 150 mg/kg was dissolved in tap water per oral gavage. The solution was prepared <30 seconds before administration (100 μL administration volume).
Behavioral tests performed 2.5-3 hours after drug administration. 8 mice (C57/BL) per group were used received vehicle or Prodrug D.
The EPMT was used to assess anxiety-like reactivity as induced suppression of exploratory behavior. The maze was made of white Plexiglass and consisted of two open arms (16×5 cm) opposite each other and two walled arms (16×5×12 cm) opposite each other. […] The mice were each placed on the central platform facing one of the open arms. EPMT behavior was recorded for 5 min under bright white light (100 W). Behavioral endpoints that were analyzed included time spent in the open vs closed arms, frequency of open arm vs closed arm entries, time spent (s) on the central platform. Anxiolytic agents are known to increase open arm visits and time in the open arm. Anxiogenics increase closed arm visits.
The percentage of the time spent in the open arms was calculated employing the formula […] where OA represents the time (s) spent in open arms and CA is the time (s) spent in the closed arms. Behavioral experiments were recorded and analyzed using an automated tracking system (Video track, View Point Life Science, Montreal, Canada) equipped with infrared lighting-sensitive CCD cameras (Bambico F R et al., 2010).

[2] = Solubility of Prodrug D; format: physicochemical
From the text: The solubility and stability of Prodrug D as synthesized in Example 2 were studied.

[3] = Stability of Prodrug D in solvents by HPLC; format: physicochemical
Protocol: For this test, we used HPLC with different solvent systems. […] Therefore, after initial assessment, this method was used for the remaining tests. Prodrug D or UCM924 (comparator) were dissolved in the different solvents listed in the table below and, after the waiting period indicated, HPLC tests were carried out according to the above. The results are shown in the table below, in which the percentages represent the quantity of prodrug D or UCM924 detected in the samples.

[4] = test system: neuropathic (SNI) rats; test: Mechanical allodynia (von Frey, 50% paw withdrawal threshold) after spared nerve injury (SNI); format: in vivo, rat; settings: 50 mg/kg per os
Protocol: Experiments were performed in male Sprague-Dawley rats (body weight: 250-300 g; Charles River Laboratories, St. Constant, QC, Canada) and adult male C57BL mice (body weight: 25-30 g; inbred). All animals were housed in small groups at a constant temperature of 22° C., with food and water provided ad libitum, and maintained under a 12 h light/dark cycle (lights on at 7:00 AM; lights off at 7:00 PM). All experimental procedures were conducted in accordance with the guidelines of the Canadian Council on Animal Care, and the protocols were approved by the Animal Care Committee at McGill University.
The different prodrug compounds as synthesized in Example 2 were tested and compared with Gabapentin (150 mg/kg, purchased from Sigma Aldrich, US). Prodrug was dissolved in saline, water, or a vehicle composed of 40% PEG400 and 60% water. Gabapentin was dissolved in a vehicle composed of 40% PEG400 and 60% water. All drugs (doses see the procedure descriptions below) were administrated per os (gavage) through a curved feeding tube (20 G for rats and 22 G for mice) at the beginning of the experiment unless otherwise specified. The dose of prodrug was chosen based on its pharmacokinetic properties, and the doses of Gabapentin were chosen from literature (Lopez-Canul, Palazzo et al. 2015).
Spared nerve injury was performed according to the method of (Decosterd I and Woolf CJ, 2000), see also Lopez-Canul et al., 2015. Rats and mice were anesthetized with isoflurane. The sciatic nerve was exposed at mid-thigh level distal to the trifurcation and freed of connective tissue; the three peripheral branches (sural, common peroneal, and tibial nerves) of the sciatic nerve were exposed without stretching nerve structures. Both tibial and common peroneal nerves were ligated and transected together. Tactile allodynia was absent in healthy (pre-surgery) and sham rats, and the mechanical withdrawal threshold in rats before SNI (pre-surgery) or sham was very close to the cutoff of dynamic plantar aesthesiometer (30 g) (Ugo Basile, Varese, Italy).
On day 14 after surgery, individual rats were placed in a test chamber (clear plastic wire mesh-bottomed cage) and allowed to acclimatize for 30 to 40 minutes. Von Frey filaments (Stoelting, Wood Dale, IL) were used to measure the 50% paw withdrawal threshold using the up-and-down method reported by {Chaplan, 1994 #399}. […] Lifting of the paw indicated a positive response and prompted the use of the […], whereas absence of paw withdrawal after 5 seconds indicated a negative response and prompted the next filament of increasing weight. This paradigm continued for 4 more measurements after the initial change of the behavioral response or until 5 consecutive negative or 4 consecutive positive responses. Based on observations on normal, unoperated, and sham-operated rats, the cutoff value of 15 g was selected as the upper limit for testing because stiffer hairs tended to raise the entire limb rather than to buckle, substantially changing the nature of the stimulus. The resulting scores were used to calculate the 50% response threshold using the formula proposed by Dixon. Allodynia was considered to be present when paw withdrawal thresholds were <4 g, and drugs raising this threshold were considered antiallodynic {Lopez-Canul, 2015}. Accordingly, all nerve ligated rats were verified to be allodynic, responding to a stimulus of <4 g. Rats without mechanical allodynia were excluded. After the determination of the basal response, allodynia was assessed at baseline, 0.5, 1, 1.5, 2, 2.5, 3, 4, 5, 6, 7, and 8 hours post-administration for each treatment described below. Groups of 5 to 6 rats per treatment were used, with each animal being used for 1 treatment only. […]

[5] = 2.5-3 hours after administration, 5 min EPMT

- solubility ([2]; aqueous with cosolvent or surfactant or cyclodextrin, in PEG400:water 40%:60% mixture): > 125 mg/mL
- solubility ([2]; in water): > 150 mg/mL
- quantity detected in the sample by HPLC ([3]; HPLC Method 1, H2O, 0 h, pH ~7.0): 90.15%
- quantity detected in the sample by HPLC ([3]; HPLC Method 2, 1N HCl, overnight at rt, pH ~0): 85.21%
- quantity detected in the sample by HPLC ([3]; HPLC Method 2, 40% PEG400:60% H2O, overnight at rt, pH ~7.0): 58.17%
- quantity detected in the sample by HPLC ([3]; HPLC Method 2, H2O, 0 h, pH ~7.0): 93.92%
- quantity detected in the sample by HPLC ([3]; HPLC Method 2, H2O, overnight at rt, pH ~7.0): 18.28%
- quantity detected in the sample by HPLC ([3]; HPLC Method 2, Saturated NaHCO3aq, 2 h at rt, pH ~8.5): 27.21%
- stability at different PH ([3]; rank order): acidic>neutral>basic
SMILES: CC(=O)N(CCN(c1ccc(F)cc1)c1cccc(Br)c1)C(=O)OCOC(=O)CN.Cl [Prodrug D, ((acetyl(2-((3-bromophenyl)(4-fluorophenyl)amino)ethyl)carbamoyl)oxy)methyl 2-aminoacetate hydrochloride]
- overall effect in the EPMT [1]: antianxiety effects
- closed arm time, median [1, 5]: 222.8, n = 8
- entries to open, median [1, 5]: 11.00, n = 8
- open arm time, median [1, 5]: 56.30, n = 8
- total distance, median [1, 5]: 1521, n = 8
- closed arm time, difference between medians: Actual ([1]; VEH minus Prodrug D (column A)): 25.75
- entries to open, difference between medians: Actual ([1]; VEH minus Prodrug D (column A)): −2
- open arm time, difference between medians: Actual ([1]; VEH minus Prodrug D (column A)): −30.85
- total distance, difference between medians: Actual ([1]; VEH minus Prodrug D (column A)): −2.35
- closed arm time, difference between medians: Hodges-Lehmann ([1]; VEH vs. Prodrug D): 29.45
- entries to open, difference between medians: Hodges-Lehmann ([1]; VEH vs. Prodrug D): −2.5
- open arm time, difference between medians: Hodges-Lehmann ([1]; VEH vs. Prodrug D): −25.9
- total distance, difference between medians: Hodges-Lehmann ([1]; VEH vs. Prodrug D): −116.6
- AUC of withdrawal threshold vs. UCM924, t-test p [4]: 0.015
- Area Under the Curve (AUC) of withdrawal threshold vs. vehicle, Bonferroni p (FIG. 1B) [4]: < 0.0001
- withdrawal threshold over time vs. vehicle (two-way ANOVA, FIG. 1A) ([4]; 0.5-8 h): significantly increased the withdrawal threshold
- withdrawal threshold vs. vehicle, Bonferroni post-hoc p ([4]; after 3, 4, 5 and 6 hours): < 0.0001
- withdrawal threshold vs. vehicle, Bonferroni post-hoc p ([4]; after 1 hour): 0.05
- withdrawal threshold vs. precursor UCM924, Bonferroni post-hoc p ([4]; hour 5): < 0.001
- withdrawal threshold vs. precursor UCM924, Bonferroni post-hoc p ([4]; hour 6): < 0.0001
